From ChEMBL document CHEMBL5052848, “Atf6 modulators and uses thereof” (2021)

What was measured:
Assay type in all cases: cell-based
[1] = system: U2OS; test: Modulation of ATF6 activity in human U2OS cells at 1 uM in presence of ER stress inducer thapsigargin (Tg) measured by TRE-luciferase reporter assay relative to control
[2] = system: U2OS; test: Modulation of ATF6 activity in human U2OS cells at 10 uM in presence of ER stress inducer thapsigargin (Tg) measured by TRE-luciferase reporter assay relative to control
[3] = system: U2OS; test: Modulation of ATF6 activity in human U2OS cells at 1 uM measured by TRE-luciferase reporter assay relative to control
[4] = system: U2OS; test: Modulation of ATF6 activity in human U2OS cells at 10 uM measured by TRE-luciferase reporter assay relative to control

Row | Compound | Activity ([1]; filed as activator) [%] | Activity ([2]; filed as activator) [%] | Activity [3] [%] | Activity [4] [%] | Activity [1] [%] | Activity [2] [%]
1 | CC(c1c(Cl)cccc1Cl)n1cc(NC(=O)c2cc(-c3ccco3)on2)cn1 (stereo unspecified) | > 150 | > 150 | 0 | 0 | – | –
2 | CC(c1c(Cl)cccc1Cl)n1cc(NC(=O)c2cc(-c3cccs3)on2)cn1 (stereo unspecified) | – | 100 | 0 | 0 | 75 | –
3 | CC(c1ccc(F)cc1Cl)n1cc(NC(=O)c2cc(-c3ccco3)on2)cn1 (stereo unspecified) | 100 | – | – | – | – | 75
4 | Cc1c(NC(=O)c2cc(-c3ccco3)on2)cnn1C(C)c1c(F)cccc1Cl (stereo unspecified) | – | 100 | 0 | 0 | 75 | –
5 | O=C(Nc1cnn(C2CCCc3ccccc32)c1)c1cc(-c2ccco2)on1 (stereo unspecified) | 100 | 125 | – | – | – | –
6 | O=C(Nc1cnn(C2CCc3cc(C(F)(F)F)ccc32)c1)c1cc(-c2cnccn2)on1 (stereo unspecified) | – | – | – | – | 75 | 75
7 | O=C(Nc1cnn(Cc2ccc(C(F)(F)F)cc2)c1)c1cc(-c2ccco2)on1 | 100 | – | – | – | – | 75
8 | O=C(Nc1cnn(Cc2ccc(C(F)(F)F)cc2C(F)(F)F)c1)c1cc(-c2ccco2)on1 | – | – | – | – | < 50 | < 50
9 | O=C(Nc1cnn(Cc2ccccc2)c1)c1cc(-c2ccco2)on1 | 100 | 125 | – | – | – | –
10 | CC(c1c(Cl)cccc1Cl)n1cc(NC(=O)c2cc(-c3ccco3)on2)cn1 (single isomer, unassigned) | 125 | 100 | – | – | – | –
11 | O=C(Nc1cnn(C2CCc3cc(Cl)ccc32)c1)c1cc(-c2ccco2)on1 (single isomer, unassigned; enantiomer A) | – | – | – | – | 75 | < 50
12 | O=C(Nc1cnn(C2CCc3cc(Cl)ccc32)c1)c1cc(-c2ccco2)on1 (single isomer, unassigned; enantiomer B) | – | – | – | – | 75 | 75
13 | CC(c1c(F)cccc1Cl)n1cc(NC(=O)c2cc(-c3ccco3)on2)cn1 (stereo in doubt; 1-4) | > 150 | > 150 | – | – | – | –
14 | CC(c1ccc(F)cc1F)n1cc(NC(=O)c2cc(-c3ccco3)on2)cn1 (stereo in doubt; 1-5) | 100 | > 150 | – | – | – | –
15 | CC(c1ccc(C(F)(F)F)cc1C(F)(F)F)n1cc(NC(=O)c2cc(-c3cnccn3)no2)cn1 (stereo in doubt; 1-11) | – | – | – | – | 50 | < 50
16 | CC(c1c(F)cccc1Cl)n1cc(NC(=O)c2cc(-c3ccco3)on2)cn1 (stereo in doubt; 1-14) | > 150 | > 150 | 0 | 0 | – | –
17 | CC(c1c(F)cccc1Cl)n1cc(NC(=O)c2cc(-c3ccco3)on2)cn1 (stereo in doubt; 1-15) | 100 | 100 | 0 | 0 | – | –
18 | CC(c1ccc(F)cc1F)n1cc(NC(=O)c2cc(-c3ccco3)on2)cn1 (stereo in doubt; 1-16) | 100 | 125 | 0 | 0 | – | –
19 | CC(c1ccc(F)cc1F)n1cc(NC(=O)c2cc(-c3ccco3)on2)cn1 (stereo in doubt; 1-17) | 100 | 100 | 0 | 0 | – | –
20 | CC(c1ccc(C(F)(F)F)cc1C(F)(F)F)n1cc(NC(=O)c2cc(-c3cnccn3)no2)cn1 (stereo in doubt; 1-25) | – | – | – | – | 75 | 75
21 | CC(c1ccc(C(F)(F)F)cc1C(F)(F)F)n1cc(NC(=O)c2cc(-c3cnccn3)no2)cn1 (stereo in doubt; 1-26) | – | – | – | – | < 50 | < 50
